Active and inactive are the calls of the source. The calls are words filed in the database; no cut-off is given here.
Experiments:
[1] = Induction of cleavage of rRNA at 50 ug/mL
Candida albicans = assay: Antimicrobial activity against Candida albicans at 25 ug/mL by paper-disk method; assay type: functional; settings: read-out: IZ
[2] = Induction of cleavage of mRNA at 50 ug/mL

## CC(C)=CCC[C@@H](C)/C=C/C=C(\C)C(=O)NC(=N)NCCCCNC(=N)N [STELLETTADINE A]
[1]
  Activity: Active
Candida albicans
  zone of inhibition at 25 µg/mL: 9 mm
[2]
  Activity: Active

## CC(C)=CCC[C@@H](C)/C=C/C=C(\C)C(=O)NC[C@@H]1CC[N+]2(C)CCCC[C@H]12 (stereo partly specified) [STELLETTAMIDE B]
[1]
  Activity: Active
Candida albicans
  zone of inhibition at 25 µg/mL: 4 mm
[2]
  Activity: Active

— ChEMBL document CHEMBL1146429, “Stellettamide B, a new indolizidine alkaloid from a sponge of the genus Stelletta” (1997)
